According to patent US8563588B2, “Imidazolone derivatives, method for the preparation thereof and biological applications” (Universite de Rennes 1, priority 2007, dated 2013):
Where two headings read alike, the source gives them in different places.

Target: Rat recombinant DYRK1A (Rattus norvegicus, UniProt Q63470)
Test: Assaying of the kinase activity of DYRK1A (33P-ATP, myelin basic protein, P81 filter);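 also: GST fusion rat DYRK1A made in E. coli, scintillation counting of label bound to substrate, activity as percent of the inhibitor-free maximum after blank subtraction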
Format: biochemical
[1] = 15 μM ATP, 30° C., 30 min, read-out: IC50 DYRK1A

Row | SMILES | IC50 [1] [µM] | also measured
1 | CCSC1=N/C(=C\c2c[nH]c3ccccc23)C(=O)N1C [FB08] | > 10 | 
2 | CCCSC1=N/C(=C\c2c[nH]c3ccccc23)C(=O)N1C [FB14] | > 10 | 
3 | CCCCSC1=N/C(=C\c2c[nH]c3ccccc23)C(=O)N1C [FB17] | > 10 | 
4 | CNC1=N/C(=C\c2ccc3c(c2)OCO3)C(=O)N1C [FC084] |  | IC50 (IC50 DYRK1A): 2.7 µM
5 | CNC1=N/C(=C\c2ccc3c(c2)OCO3)C(=O)N1 [FC085] | 1.7 | 
6 | CCNC1=N/C(=C\c2ccc3c(c2)OCO3)C(=O)N1C [FC088] | 0.9 | 
7 | CCNC1=N/C(=C\c2ccc3c(c2)OCO3)C(=O)N1 [FC090, (5Z)-5-Benzo[1,3]dioxol-5-ylmethylene-2-ethylamino-3,5-dihydro-4H-imidazol-4-one] | 1.1 | 
8 | CC(C)NC1=N/C(=C\c2ccccc2)C(=O)N1C [FC095] | > 10 | 
9 | CN1C(=O)/C(=C/c2ccc3c(c2)OCO3)N=C1NCc1ccccc1 [FC097] | 1.4 | 
10 | COCCNC1=N/C(=C\c2ccc3c(c2)OCO3)C(=O)N1C [FC103] | 1.2 | 
11 | COc1cc(/C=C2\N=C(NC(C)C)N(C)C2=O)cc(OC)c1OC [FC104b] | > 10 | 
12 | CN1C(=O)/C(=C/c2ccc3c(c2)OCO3)N=C1NCC1CC1 [FC107] | 0.98 | 
13 | CC(C)NC1=N/C(=C\c2ccccn2)C(=O)N1C [FC109] | > 10 | 
14 | O=C1NC(NCC2CC2)=N/C1=C\c1ccc2c(c1)OCO2 [FC114] | 0.5 | 
15 | CCCNC1=N/C(=C\c2ccc3c(c2)OCO3)C(=O)N1 [FC126] | 0.89 | 
16 | CC(C)NC1=N/C(=C\c2ccc3c(c2)OCO3)C(=O)N1C [FCJR232] |  | IC50 (IC50 DYRK1A, 15 μM ATP, 30° C., 30 min): 1.3 µM
17 | CC(=O)NC1=N/C(=C\c2ccc3c(c2)OCO3)C(=O)N1C [IA24] | > 10 | 
18 | CN1C(=O)/C(=C/c2ccc3c(c2)OCO3)N=C1NC(=O)Cc1ccccc1 [IA25] | > 10 | 
19 | CN1C(=O)/C(=C/c2ccc3c(c2)OCO3)N=C1NC(=O)C(C)(C)C [IA31] | 3.4 | 
20 | C=CC(=O)NC1=N/C(=C\c2ccc3c(c2)OCO3)C(=O)N1C [IA32] | 15 | 
21 | CN1C(=O)/C(=C/c2ccc3c(c2)OCO3)N=C1NC(=O)c1ccccc1 [IA33] | > 10 | 
22 | CCOC(=O)C(=O)NC1=N/C(=C\c2ccc3c(c2)OCO3)C(=O)N1C [IA35] | > 10 | 
23 | CCCNC1=N/C(=C\c2ccc3c(c2)OCO3)C(=O)N1c1ccccc1 [JR445] | > 10 | 
24 | CN1C(=O)/C(=C/c2ccc3c(c2)OCO3)N=C1Nc1ccc(O)cc1 [MADE8] | 0.38 | 
25 | CN1C(=O)/C(=C/c2ccc3c(c2)OCO3)N=C1NCc1ccc2c(c1)OCO2 [MADE12] | 4.6 | 
26 | CN1C(=O)/C(=C/c2ccc3c(c2)OCO3)N=C1NCCCCCO [MADE23] |  | IC50 (IC50 DYRK1A): 3 µM

Further lines, with some results ahead:

Row | IC50 [1] [µM] | SMILES | also measured
27 | 0.26 | CC(O)c1cccc(NC2=N/C(=C\c3ccc4c(c3)OCO4)C(=O)N2C)c1 (racemic) [MADE36] | 
28 | > 10 | CCCNC1=N/C(=C\c2ccccc2)C(=O)N1C [FCFD08] | 
29 | 1.6 | C=CCNC1=N/C(=C\c2ccc3c(c2)OCO3)C(=O)N1C [FCFD13] | 
30 | > 10 | CCCNC1=N/C(=C\c2cc(OC)c(OC)c(OC)c2)C(=O)N1C [FCFD14] | 
31 | > 10 | CC(C)CNC1=N/C(=C\c2ccc3c(c2)OCO3)C(=O)N1C [FCFD24] | 
32 | 2.3 | CCCNC1=N/C(=C\c2ccc3c(c2)OCO3)C(=O)N1C [FCJR405, (5Z)-5-Benzo[1,3]dioxol-5-ylmethylene-3-methyl-2-propylamino-3,5-dihydroimidazol-4-one] | 
33 | 1.8 | CCCCNC1=N/C(=C\c2ccc3c(c2)OCO3)C(=O)N1C [FCJR457] | 
34 | > 10 | CCCCNC1=N/C(=C\c2ccc3c(c2)OCO3)C(=O)N1CCCC [FCJR464] | 
35 | > 10 | CSC1=N/C(=C\c2ccccc2)C(=O)N1C [JR158] | 
36 | > 10 | CSC1=N/C(=C\c2ccccc2O)C(=O)N1C [JR159] | 
37 | > 10 | CSC1=N/C(=C\c2ccccn2)C(=O)N1C [JR160] | 
38 | > 10 | COc1cc(/C=C2\N=C(SC)N(C)C2=O)cc(OC)c1OC [JR161] | 
39 | > 10 | CSC1=N/C(=C\c2ccc(Br)cc2)C(=O)N1C [JR162] | 
40 | > 10 | CCCCN1C(=O)/C(=C/c2ccc3c(c2)OCO3)NC1=S [JR361] | 
41 | > 10 | O=C1/C(=C/c2ccc3c(c2)OCO3)NC(=S)N1c1ccccc1 [JR370] | 
42 | 5.8 | CCOC(=O)CSC1=N/C(=C\c2ccc3c(c2)OCO3)C(=O)N1C [JR404] | 
43 | > 10 | CCOC(=O)CSC1=N/C(=C\c2ccc3c(c2)OCO3)C(=O)N1c1ccccc1 [JR411] | 
44 | > 10 | CCCCN1C(=O)/C(=C/c2ccc3c(c2)OCO3)N=C1NCCC [JR442] | 
45 | > 10 | CCCCN1C(=O)/C(=C/c2ccc3c(c2)OCO3)N=C1SC [JR448] | 
46 | 0.69 | CN1C(=O)/C(=C/c2ccc3c(c2)OCO3)N=C1Nc1ccccc1O [MADE9] | 
47 | 1.4 | COC(CNC1=N/C(=C\c2ccc3c(c2)OCO3)C(=O)N1C)OC [MADE10] | 
48 | > 10 | COC(=O)NCCNC1=N/C(=C\c2ccc3c(c2)OCO3)C(=O)N1C [MADE24] | 
